From the supplement of paper PMC13380429

Columns and labels:
Details in all cases: 72 h
[1] = test system: Caco-2; test: relative viability EC50 (midpoint between 100% and the lowest measured viability); higher = less toxic
[2] = test system: Calu-3; test: as above
[3] = test system: HepG2; test: as above
[4] = test system: U2OS; test: as above
[5] = test system: Vero E6; test: as above
[6] = test system: Caco-2; test: cell viability relative to DMSO; higher = less toxic
[7] = test system: Calu-3; test: as above
[8] = test system: HepG2; test: as above
[9] = test system: U2OS; test: as above
[10] = test system: Vero E6; test: as above
[11] = test system: Caco-2; test: drug sensitivity score (DSS) for viability; higher = more toxic; extreme values may be limits of the assay
[12] = test system: Calu-3; test: as above
[13] = test system: HepG2; test: as above
[14] = test system: U2OS; test: as above
[15] = test system: Vero E6; test: as above

Row | Structure (SMILES) | relative viability EC50 [1] [µM] | relative viability EC50 [2] [µM] | relative viability EC50 [3] [µM] | relative viability EC50 [4] [µM] | relative viability EC50 [5] [µM] | cell viability ([6]; 1 nM) [%] | cell viability ([6]; 10 nM) [%] | cell viability ([6]; 100 nM) [%] | cell viability ([6]; 1000 nM) [%] | cell viability ([6]; 10000 nM) [%] | cell viability ([7]; 1 nM) [%] | cell viability ([7]; 10 nM) [%] | cell viability ([7]; 100 nM) [%] | cell viability ([7]; 1000 nM) [%] | cell viability ([7]; 10000 nM) [%] | cell viability ([8]; 1 nM) [%] | cell viability ([8]; 10 nM) [%] | cell viability ([8]; 100 nM) [%] | cell viability ([8]; 1000 nM) [%] | cell viability ([8]; 10000 nM) [%] | cell viability ([9]; 1 nM) [%] | cell viability ([9]; 10 nM) [%] | cell viability ([9]; 100 nM) [%] | cell viability ([9]; 1000 nM) [%] | cell viability ([9]; 10000 nM) [%] | cell viability ([10]; 1 nM) [%] | cell viability ([10]; 10 nM) [%] | cell viability ([10]; 100 nM) [%] | cell viability ([10]; 1000 nM) [%] | cell viability ([10]; 10000 nM) [%] | drug sensitivity score [11] | drug sensitivity score [12] | drug sensitivity score [13] | drug sensitivity score [14] | drug sensitivity score [15]
1 | NC(=O)Cc1cccc(C(=O)c2ccccc2)c1N [nepafenac] | > 10 | > 10 | > 10 | > 10 | > 10 | 96.6 | 94.9 | 90.7 | 102 | 90.7 | 101 | 97.9 | 95.6 | 95.3 | 97.9 | 116 | 94.8 | 100 | 99.9 | 105 | 99.5 | 102 | 94.5 | 98.8 | 93.5 | 106 | 104 | 106 | 99.3 | 102 | 0 | 0 | 0 | 0 | 0
2 | NC(=O)c1cc([N+](=O)[O-])cc([N+](=O)[O-])c1 [nitromide] | > 10 | > 10 | > 10 | > 10 | > 10 | 97.5 | 95.2 | 95.8 | 104 | 104 | 93.9 | 101 | 95 | 105 | 112 | 112 | 95.1 | 99.7 | 119 | 104 | 100 | 98.4 | 101 | 96.5 | 107 | 98.3 | 96.6 | 93.6 | 94.5 | 108 | 0 | 0 | 0 | 0 | 0
3 | CNC(=O)N(C)N=O [nitrosodimethylurea] | > 10 | > 10 | > 10 | > 10 | > 10 | 85.7 | 106 | 94.7 | 86.9 | 116 | 111 | 103 | 100 | 91.6 | 109 | 88.6 | 100 | 103 | 100 | 97.7 | 99.8 | 95.7 | 95.1 | 98 | 108 | 93.6 | 92.4 | 95.4 | 86.3 | 97.9 | 0 | 0 | 0 | 0 | 0
4 | C/C=C1/[C@H](O[C@@H]2O[C@H](CO)[C@@H](O)[C@H](O)[C@H]2O)OC=C(C(=O)OC)[C@H]1CC(=O)OCCc1ccc(O)c(O)c1 [oleuropein] | > 10 | > 10 | > 10 | > 10 | > 10 | 101 | 108 | 99.9 | 101 | 88.8 | 90.8 | 98.8 | 101 | 102 | 93.6 | 101 | 97.1 | 98.1 | 108 | 84.4 | 105 | 98.7 | 101 | 95.1 | 97.8 | 98.8 | 103 | 98.7 | 105 | 95.2 | 0 | 0 | 0.1 | 0 | 0
5 | Cc1nccn1CC1CCc2c(c3ccccc3n2C)C1=O (stereo not given) [ondansetron] | > 10 | > 10 | > 10 | > 10 | > 10 | 102 | 99.4 | 94.1 | 81.2 | 104 | 84.8 | 90.1 | 81.6 | 97.6 | 89.2 | 95.6 | 83.5 | 97 | 105 | 93.3 | 96.5 | 99.4 | 103 | 99.4 | 102 | 101 | 97.4 | 103 | 95.6 | 103 | 0 | 0 | 0 | 0 | 0
6 | C[C@@H]1CN(c2c(F)c(F)c3c(=O)c(C(=O)O)cn(C4CC4)c3c2F)C[C@H](C)N1 [orbifloxacin] | > 10 | > 10 | > 10 | > 10 | > 10 | 110 | 105 | 109 | 103 | 94.6 | 113 | 97.9 | 112 | 92.8 | 107 | 98.2 | 110 | 94.8 | 100 | 92.1 | 99.5 | 97.5 | 95.3 | 97.6 | 101 | 105 | 110 | 101 | 100 | 94.5 | 0 | 0 | 0 | 0 | 0
7 | CCn1cc(C(=O)O)c(=O)c2cc3c(cc21)OCO3 [oxolinic-acid] | > 10 | > 10 | > 10 | > 10 | > 10 | 109 | 98.9 | 85.3 | 102 | 78.4 | 89.1 | 99.9 | 94.2 | 106 | 93.2 | 97 | 108 | 113 | 108 | 94.1 | 101 | 101 | 96.2 | 103 | 97 | 98.5 | 109 | 109 | 93.6 | 95 | 0.6 | 0 | 0 | 0 | 0
8 | O=C(O)/C=C/c1ccc(Cn2ccnc2)cc1 [ozagrel] | > 10 | > 10 | > 10 | > 10 | > 10 | 92.4 | 101 | 96.7 | 98.6 | 94.9 | 98 | 100 | 99.7 | 106 | 92.3 | 95 | 91.9 | 101 | 95.7 | 100 | 97.8 | 100 | 95.1 | 99.7 | 93.2 | 97.5 | 103 | 95.2 | 101 | 101 | 0 | 0 | 0 | 0 | 0
9 | C1=N/C2=N/c3ccc(OCCN4CCCC4)c(c3)COC/C=C/COCc3cccc(c3)C(=C1)N2 [pacritinib] | 1.9 | 3.34 | 2.51 | 2.3 | 2.71 | 88.9 | 95.2 | 94.6 | 87.7 | 26 | 104 | 96.5 | 95.6 | 102 | 27.8 | 94.2 | 102 | 89.4 | 92.1 | 0.8 | 90.3 | 91.6 | 101 | 89.7 | 1.5 | 96.3 | 94.9 | 94.7 | 94.7 | 7.2 | 6.1 | 3.8 | 6.7 | 7.1 | 5.9
10 | Cc1[nH]c2ccccc2c1CCNCc1ccc(/C=C/C(=O)NO)cc1 [panobinostat] | 0.136 | 0.175 | 0.052 | 0.127 | 0.142 | 99.8 | 110 | 68.4 | 1 | 1.1 | 113 | 113 | 67.8 | 17.5 | 6 | 104 | 80.6 | 36.8 | -0.3 | -0.4 | 99.2 | 97 | 62.4 | 1.4 | 0.8 | 101 | 97.8 | 70.8 | -0.4 | -0.5 | 22.3 | 19.4 | 26.6 | 22.6 | 22.3
11 | C[N+]1(CCCCC[N+]2(C)CCCC2)CCCC1 [pentolinium] | > 10 | > 10 | > 10 | > 10 | > 10 | 99 | 109 | 124 | 107 | 88.7 | 97.1 | 91.2 | 110 | 94 | 88.1 | 79.4 | 99.3 | 96 | 112 | 97.6 | 94.2 | 98.7 | 100 | 99.2 | 102 | 96.3 | 105 | 102 | 101 | 108 | 0 | 0.3 | 0 | 0 | 0
12 | CC(=O)O[C@H]1C[C@@H]2CC[C@@H]3[C@H](CC[C@@]4(C)[C@H]3C[C@H](N3CC[N+](C)(C)CC3)[C@@H]4OC(C)=O)[C@@]2(C)C[C@@H]1N1CC[N+](C)(C)CC1 [pipecuronium] | > 10 | > 10 | > 10 | > 10 | > 10 | 93.7 | 103 | 91.2 | 96.7 | 97 | 87.8 | 102 | 90.2 | 111 | 96.7 | 97.8 | 94.2 | 97.4 | 96.8 | 92.3 | 101 | 104 | 97.7 | 105 | 96.9 | 100 | 94.7 | 92.5 | 95.5 | 99.2 | 0 | 0 | 0 | 0 | 0
13 | C#CCC(Cc1cnc2nc(N)nc(N)c2n1)c1ccc(C(=O)N[C@@H](CCC(=O)O)C(=O)O)cc1 (stereo not given in full) [pralatrexate] | 0.0164 | > 10 | 0.0038 | > 10 | 0.0036 | 97 | 81.8 | 55.3 | 49.6 | 56.2 | 107 | 102 | 91.4 | 88.2 | 93.6 | 99.2 | 22.9 | 21.3 | 17.8 | 17.1 | 105 | 76.8 | 97.2 | 90 | 98.6 | 98.9 | 19.2 | 14.4 | 16.7 | 14.2 | 16.7 | 0.8 | 35.4 | 0 | 36.7
14 | C[C@]12C=CC(=O)C=C1CC[C@@H]1[C@@H]2[C@@H](O)C[C@@]2(C)[C@H]1CC[C@]2(O)C(=O)COP(=O)(O)O [prednisolone-sodium-phosphate] | > 10 | > 10 | > 10 | > 10 | > 10 | 99.6 | 89.5 | 98.4 | 92.8 | 91.7 | 97.4 | 92.7 | 101 | 82.5 | 106 | 100 | 100 | 104 | 99.2 | 100 | 95.1 | 105 | 97.9 | 90.8 | 97 | 102 | 103 | 108 | 101 | 89.6 | 0 | 0 | 0 | 0 | 0
